Several values for one entry are separate records, joined by “and”; a condition that tells them apart may be missing. Equal values may be shown once. Toxic doses and inconclusive results are not listed. No stated cut-off is given here; in the data, active means T/C of 150% or more; inactive means T/C below 125%.
System: L1210 leukemia ip in BDF1 mice, survival T/C
Experiment: NCI In Vivo Anticancer Drug Screen. Data for tumor model L1210 Leukemia (intraperitoneal) in B6D2F1 (BDF1) mice
Conditions: endpoint: mean survival time, higher = longer survival
Outline: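 Transplanted-tumor mice were given test agent; controls received vehicle only. Survival readings from the two groups were divided (treated over control).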

[1] = dose: 75.0 mg/kg/injection, schedule: Q01DX001 (ip), vehicle: other
[2] = dose: 150.0 mg/kg/injection, schedule: Q01DX001 (ip), vehicle: other
[3] = dose: 100.0 mg/kg/injection, schedule: Q01DX001 (ip), vehicle: saline
[4] = dose: 200.0 mg/kg/injection, schedule: Q01DX001 (ip), vehicle: saline
[5] = dose: 25.0 mg/kg/injection, schedule: Q04DX003 (ip), vehicle: saline
[6] = dose: 50.0 mg/kg/injection, schedule: Q04DX003 (ip), vehicle: saline
[7] = dose: 100.0 mg/kg/injection, schedule: Q04DX003 (ip), vehicle: saline
[8] = dose: 400.0 mg/kg/injection, schedule: Q01DX001 (ip), vehicle: saline
[9] = dose: 100.0 mg/kg/injection, schedule: Q01DX001 (ip), vehicle: carboxymethylcellulose (CMC)
[10] = dose: 100.0 mg/kg/injection, schedule: Q04DX003 (ip), vehicle: Klucel (hydroxypropylcellulose) (HPC)
[11] = dose: 200.0 mg/kg/injection, schedule: Q04DX003 (ip), vehicle: Klucel (hydroxypropylcellulose) (HPC)
[12] = dose: 400.0 mg/kg/injection, schedule: Q04DX003 (ip), vehicle: Klucel (hydroxypropylcellulose) (HPC)
[13] = dose: 200.0 mg/kg/injection, schedule: Q01DX001 (ip), vehicle: carboxymethylcellulose (CMC)
[14] = dose: 50.0 mg/kg/injection, schedule: Q01DX001 (ip), vehicle: saline
[15] = dose: 25.0 mg/kg/injection, schedule: Q01DX009 (ip), vehicle: saline
[16] = dose: 50.0 mg/kg/injection, schedule: Q01DX009 (ip), vehicle: saline
[17] = dose: 50.0 mg/kg/injection, schedule: Q01DX009 (ip), vehicle: saline with Tween-80
[18] = dose: 100.0 mg/kg/injection, schedule: Q01DX009 (ip), vehicle: saline with Tween-80

Measured: T/C

CC(C)(O)C1C2OC(=O)C1C1(O)CC3OC34C(=O)OC2C14C (centres undefined)
inactive: dose: 12.5 mg/kg/injection, schedule: Q04DX003 (ip), vehicle: Klucel (hydroxypropylcellulose) (HPC) 100 % of control | dose: 25.0 mg/kg/injection, schedule: Q04DX003 (ip), vehicle: Klucel (hydroxypropylcellulose) (HPC) 100 % of control | dose: 50.0 mg/kg/injection, schedule: Q04DX003 (ip), vehicle: Klucel (hydroxypropylcellulose) (HPC) 100 % of control | [1] 102 % of control | [2] 109 % of control

O=c1c2ccccc2[nH]c2ncccc12
inactive: dose: 100.0 mg/kg/injection, schedule: Q04DX002 (ip), vehicle: Klucel (hydroxypropylcellulose) (HPC) 96 % of control | dose: 200.0 mg/kg/injection, schedule: Q04DX002 (ip), vehicle: Klucel (hydroxypropylcellulose) (HPC) 92 % of control

O=C(O)C(CO)NS(=O)(=O)Cc1ccccc1 (centres undefined)
inactive: dose: 100.0 mg/kg/injection, schedule: Q01DX001 (ip), vehicle: other 104 % of control | dose: 200.0 mg/kg/injection, schedule: Q01DX001 (ip), vehicle: other 96 % of control | dose: 400.0 mg/kg/injection, schedule: Q01DX001 (ip), vehicle: other 96 % of control

CC(=O)OCC1OCOC2C(C(N)=O)OCOC12 (centres undefined)
inactive: [3] 103 % of control | [4] 103 % of control

CCN1CCC2CN(C)CCN2C1=S (centres undefined)
inactive: [5] 98 % of control | [6] 105 % of control | [3] 92 % of control | [7] 94 % of control

CCC(CC=C(C)C)(CC=C(C)C)c1ccncc1 (tested in a mixture with another compound)
inactive: [3] 97 % of control | [4] 102 % of control | [8] 97 % of control

C/C=C/c1ccc2ccc[n+](C)c2c1O
inactive: [5] 94 % of control | dose: 50.0 mg/kg/injection, schedule: Q01DX001 (ip), vehicle: carboxymethylcellulose (CMC) 103 % of control | [6] 98 % of control | [9] 95 % of control | [7] 94 % of control

Cc1nc(N)nc2c1CCC(Nc1ccccc1)S2 (centres undefined)
inactive: [10] 106 % of control | [11] 103 % of control | [12] 92 % of control

Cc1cccn2c(=O)cc(Cl)nc12
inactive: [9] 96 % of control | [13] 98 % of control

OCCCC1CC2C=CC1C2 (centres undefined)
inactive: [1] 102 % of control | [2] 94 % of control

CCOCCOCCOC(C)Oc1ccc(Cl)cc1C (centres undefined)
inactive: dose: 100.0 mg/kg/injection, schedule: Q04DX002 (ip), vehicle: saline with Tween-80 123 % of control | dose: 200.0 mg/kg/injection, schedule: Q04DX002 (ip), vehicle: saline with Tween-80 100 % of control | dose: 400.0 mg/kg/injection, schedule: Q04DX002 (ip), vehicle: saline with Tween-80 103 % of control

O=C(Sc1ccc2ccccc2c1CN1CCCCC1)c1ccc([N+](=O)[O-])cc1
inactive: dose: 200.0 mg/kg/injection, schedule: Q01DX Z (ip), vehicle: methylcellulose (MC) 96 % of control | dose: 225.0 mg/kg/injection, schedule: Q01DX Z (ip), vehicle: methylcellulose (MC) 94 % of control | dose: 450.0 mg/kg/injection, schedule: Q01DX Z (ip), vehicle: methylcellulose (MC) 89 % of control | dose: 675.0 mg/kg/injection, schedule: Q01DX Z (ip), vehicle: methylcellulose (MC) 96 % of control

CCC(=O)O[C@H]1CC[C@H]2[C@@H]3[C@H](C)CC4=CC(=O)CC[C@]4(C)[C@H]3CC[C@]12C
inactive: [9] 97 % of control | [13] 94 % of control | dose: 400.0 mg/kg/injection, schedule: Q01DX001 (ip), vehicle: carboxymethylcellulose (CMC) 90 % of control

NCCNCCNCCN1CC1
inactive: dose: 10.0 mg/kg/injection, schedule: Q04DX002 (ip), vehicle: saline 97 % of control | dose: 20.0 mg/kg/injection, schedule: Q04DX002 (ip), vehicle: saline 97 % of control

CC1CN(Cc2ccccc2)CC(C)N1 (centres undefined)
inactive: dose: 25.0 mg/kg/injection, schedule: Q01DX009 (ip), vehicle: water 95 % of control | dose: 50.0 mg/kg/injection, schedule: Q01DX009 (ip), vehicle: water 95 % of control | dose: 100.0 mg/kg/injection, schedule: Q01DX009 (ip), vehicle: water 104 % of control | dose: 100.0 mg/kg/injection, schedule: Q04DX003 (ip), vehicle: water 110 % of control | dose: 200.0 mg/kg/injection, schedule: Q04DX003 (ip), vehicle: water 115 % of control

On1ccccc1=S
inactive: dose: 6.25 mg/kg/injection, schedule: Q04DX002 (ip), vehicle: saline with Tween-80 100 % of control | dose: 12.5 mg/kg/injection, schedule: Q04DX002 (ip), vehicle: saline with Tween-80 111 % of control | dose: 25.0 mg/kg/injection, schedule: Q04DX002 (ip), vehicle: saline with Tween-80 100 % of control

COP(=O)(OC)c1nc(P(=O)(OC)OC)nc(P(=O)(OC)OC)n1
inactive: [14] 98 % of control | [3] 93 % of control | [4] 93 % of control | [8] 93 % of control

CS(=O)(=O)NN
inactive: [15] 89 % of control | [14] 100 % of control | [16] 94 % of control | [3] 102 % of control and 103 % of control

O=C(NCCNC(c1ccccc1)(c1ccccc1)c1ccccc1)C(F)(F)F
inactive: dose: 50.0 mg/kg/injection, schedule: Q01DX009 (ip), vehicle: Klucel (hydroxypropylcellulose) (HPC) 105 % of control | dose: 100.0 mg/kg/injection, schedule: Q01DX009 (ip), vehicle: Klucel (hydroxypropylcellulose) (HPC) 100 % of control | [10] 91 % of control | dose: 200.0 mg/kg/injection, schedule: Q01DX009 (ip), vehicle: Klucel (hydroxypropylcellulose) (HPC) 96 % of control | [11] 100 % of control | [12] 93 % of control

Cc1ccccc1-c1nc2cc(Cl)ccc2c(=O)o1
inactive: dose: 25.0 mg/kg/injection, schedule: Q01DX009 (ip), vehicle: saline with Tween-80 98 % of control | [17] 88 % of control | [18] 96 % of control | dose: 100.0 mg/kg/injection, schedule: Q04DX003 (ip), vehicle: saline with Tween-80 100 % of control | dose: 200.0 mg/kg/injection, schedule: Q04DX003 (ip), vehicle: saline with Tween-80 102 % of control | dose: 400.0 mg/kg/injection, schedule: Q04DX003 (ip), vehicle: saline with Tween-80 108 % of control

CC[Si](CC)(CC)C(C)Cl (centres undefined)
inactive: [10] 101 % of control | [11] 101 % of control | [12] 98 % of control

COc1ccc(/C=C/C(=O)c2ccc(OCc3ccccc3)c(OC)c2)cc1OC
inactive: [17] 105 % of control | [18] 104 % of control | dose: 200.0 mg/kg/injection, schedule: Q01DX009 (ip), vehicle: saline with Tween-80 98 % of control | dose: 400.0 mg/kg/injection, schedule: Q01DX009 (ip), vehicle: saline with Tween-80 90 % of control | dose: 500.0 mg/kg/injection, schedule: Q01DX009 (ip), vehicle: saline with Tween-80 102 % of control

C=CCOB(OCC=C)OCC=C
inactive: dose: 12.5 mg/kg/injection, schedule: Q01DX009 (ip), vehicle: saline 120 % of control | [15] 101 % of control | [5] 97 % of control | [16] 106 % of control | [6] 103 % of control
